In patent publication US8399521B2, “Methods of treating skin with aromatic skin-active ingredients” (Mary Kay Inc., priority 2008, dated 2013):

Legend:
[1] = molecular target: T1, MMP9 (Homo sapiens, UniProt P14780); assay: Matrix metalloproteinase enzyme activity assay, MMP9; format: biochemical; details: for MMP9 Inhibition (0.001%): 0.001% test compound, Table 2; for MMP9 Inhibition (0.001%) / MMP9 Inhibition (0.01%): negative = inhibition vs diluent control; for inhibition at 0.01 % / MMP9 Inhibition (0.01%): 0.01% test compound, Table 3
T1 construct: purchased BioMol International AK-410
T1 sequence (P14780 107-444 limits assumed): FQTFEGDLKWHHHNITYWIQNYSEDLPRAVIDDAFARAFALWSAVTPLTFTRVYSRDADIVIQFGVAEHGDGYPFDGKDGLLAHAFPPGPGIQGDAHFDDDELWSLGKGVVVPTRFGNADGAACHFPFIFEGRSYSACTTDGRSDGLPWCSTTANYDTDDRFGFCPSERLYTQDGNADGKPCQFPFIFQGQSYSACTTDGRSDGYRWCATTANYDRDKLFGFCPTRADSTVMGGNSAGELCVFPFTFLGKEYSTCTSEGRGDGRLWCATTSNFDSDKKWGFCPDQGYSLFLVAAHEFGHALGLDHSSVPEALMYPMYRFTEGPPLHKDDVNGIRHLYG
Text: Matrix metalloproteinase enzyme activity (MMP3; MMP9) assay: An in vitro matrix metalloprotease (MMP) inhibition assay. MMPs are extracellular proteases that play a role in many normal and disease states by virtue of their broad substrate specificity. MMP3 substrates include collagens, fibronectins, and laminin; while MMP9 substrates include collagen VII, fibronectins and laminin. Using Colorimetric Drug Discovery kits from BioMol International for MMP3 (AK-400) and MMP-9 (AK-410), this assay is designed to measure protease activity of MMPs using a thiopeptide as a chromogenic substrate (Ac-PLG-[2-mercapto-4-methyl-pentanoyl]-LG-OC2H5)5,6. The MMP cleavage site peptide bond is replaced by a thioester bond in the thiopeptide. Hydrolysis of this bond by an MMP produces a sulfhydryl group, which reacts with DTNB [5,5′-dithiobis(2-nitrobenzoic acid), Ellman's reagent] to form 2-nitro-5-thiobenzoic acid, which can be detected by its absorbance at 412 nm (ε=13,600 M-1 cm-1 at pH 6.0 and above 7). Data is reflected as % inhibition of the purified enzyme activity.

[2] = molecular target: T2, COX-2 (Ovis aries, UniProt P79208); assay: Colorimetric COX (ovine) inhibitor screening assay, COX-2; format: biochemical; details: 0.001% test compound, Table 3; for inhibition at 0.001 %: 0.25 h; for Cox-2 Inhibition (0.001%): negative = inhibition vs non-treated control
T2 construct: purchased Cayman Chemical 760111
T2 sequence (P79208 17-603): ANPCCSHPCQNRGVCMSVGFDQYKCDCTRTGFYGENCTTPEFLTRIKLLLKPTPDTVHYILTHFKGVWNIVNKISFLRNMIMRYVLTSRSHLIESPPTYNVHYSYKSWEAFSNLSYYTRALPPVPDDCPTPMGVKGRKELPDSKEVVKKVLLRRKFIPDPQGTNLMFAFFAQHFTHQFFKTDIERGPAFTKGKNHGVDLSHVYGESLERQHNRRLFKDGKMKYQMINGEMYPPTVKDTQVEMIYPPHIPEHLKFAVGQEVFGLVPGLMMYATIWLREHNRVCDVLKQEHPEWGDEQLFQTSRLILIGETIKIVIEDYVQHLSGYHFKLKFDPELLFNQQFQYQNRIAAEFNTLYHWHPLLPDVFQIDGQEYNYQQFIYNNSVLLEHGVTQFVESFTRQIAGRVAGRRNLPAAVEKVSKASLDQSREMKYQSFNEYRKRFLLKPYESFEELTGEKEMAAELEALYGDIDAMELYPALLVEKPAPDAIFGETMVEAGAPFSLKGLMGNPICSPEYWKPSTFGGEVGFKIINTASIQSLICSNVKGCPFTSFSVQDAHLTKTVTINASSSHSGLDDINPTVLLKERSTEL
Text: Cyclooxygenase (COX) assay: An in vitro cyclooxygenase-1 and -2 (COX-1, -2) inhibition assay. […] The cyclooxygenase activity converts arachidonic acid to a hydroperoxy endoperoxide (Prostaglandin G2; PGG2) and the peroxidase component reduces the endoperoxide (Prostaglandin H2; PGH2) to the corresponding alcohol, the precursor of prostaglandins, thromboxanes, and prostacyclins. This COX Inhibitor Screening Assay measures the peroxidase component of cyclooxygenases. The peroxidase activity is assayed colorimetrically by monitoring the appearance of oxidized N,N,N′,N′-tetramethyl-p-phenylenediamine (TMPD). This inhibitor screening assay includes both COX-1 and COX-2 enzymes in order to screen isozyme-specific inhibitors.
Following manufacturer instructions for the Colormetric COX (ovine) Inhibitor screening assay (#760111, Cayman Chemical), purified cyclooxygnase enzyme (COX-1 or COX-2), heme and test compounds were mixed in assay buffer and incubated with shaking for 15 min at room temperature. Following incubation, arachidonic acid and colorimetric substrate were added to initiate the reaction and incubated for an additional 15 min at room temperature with shaking. Color progression was evaluated by fluoresecence plate reading at 590 nm. The percent inhibition of COX-1 or COX-2 activity was calculated compared to non-treated controls to determine the ability of test compounds to inhibit the activity of purified enzyme.

Compound	inhibition at 0.001 % [2] [%]	inhibition at 0.01 % [1] [%]	other results
CC(=O)/C=C/C1=C(C)CCCC1(C)C [Beta Ionone, (3E)-4-(2,6,6-trimethylcyclohex-1-en-1-yl)but-3-en-2-one]	–	–	MMP9 Inhibition (0.001%) [1]: −19.82%
CCCCCC1CCC(=O)O1 (stereo not drawn) [Aldehyde C-18, 5-pentyldihydrofuran-2(3H)-one]	22.6	22.2	–
3-hexen-1-ol (E) and (Z)	–	–	Cox-2 Inhibition (0.001%) [2]: −23.56%; MMP9 Inhibition (0.01%) [1]: −23.82%
CCC/C(CC(=O)CC)=N/O [Stemone, (Z)-5-(hydroxyimino)octan-3-one]	22.3	–	–
1-(1,2,3,4,5,6,7,8-octahydro-2,3,8,8-tetramethyl-2-naphthalenyl)ethan-1-one; 1-(2,3,8,8-tetramethyl-1,2,3,5,6,7,8,8a-octahydronaphthalen-2-yl)ethanone; and 1-(2,3,8,8-tetramethyl-1,2,3,4,6,7,8,8a-octahydronaphthalen-2-yl)ethanone [Iso E super]	–	–	Cox-2 Inhibition (0.001%) [2]: −20.80%
CCCCCCCCCCCC=O [Aldehyde C-12 Lauric, 1-dodecanal]	–	–	MMP9 Inhibition (0.001%) [1]: −27.64%
CCCCCCCCC/C=C/C=O [2-dodecenal (E)]	–	–	MMP9 Inhibition (0.001%) [1]: −24.98%
CC1=CCC(/C=C/C(C)(C)C(C)O)C1(C)C (stereo not drawn) [Polysantol, 3,3-dimethyl-5(2,2,3-trimethyl-3-cyclopenten-1-yl)-4-penten-2-ol]	36.1	–	–
(2,4,6-)trimethyl-3-cyclohexene-1-carboxaldehyde and (3,5,6-)trimethyl-3-cyclohexene-1-carboxaldehyde [Iso Cyclo Citral]	–	–	Cox-2 Inhibition (0.001%) [2]: −31.58%; MMP9 Inhibition (0.01%) [1]: −21.78%
CC/C=C\CCCCC=O [Cis-6-Nonenal, cis-6-nonenal]	27.1	19.2	–

Now from value to compound, other results behind:

inhibition at 0.001 % [2] [%]	inhibition at 0.01 % [1] [%]	Compound	other results
23.3	–	C=C1CCCC(C)(C)C1C(=O)OC (stereo not drawn) [Romascone ®, methyl 2,2-dimethyl-6-methylenecyclohexanecarboxylate]	–
25.1	26.8	CCOC(=O)C1C2C=CC(C2)C1C(C)C (stereo not drawn) [Herbanante, ethyl 3-isopropylbicyclo[2.2.1]hept-5-ene-2-carboxylate]	–
20.6	33	O=C1CCCCCCCCCCCC(=O)OCCO1 [Ethylene Brassylate, 1,4-dioxacycloheptadecane-5,17-dione]	–
–	22	CCC/C=C\COC(C)=O [Leaf Acetate, cis-2-hexenyl acetate]	–
–	28.1	CC/C=C(\C)C(O)CCCCC (stereo not drawn) [4-methyl-3-decen-5-ol]	–
